Data as given in US10722514B2 (FLX Bio, Inc., priority 2017, dated 2020).
pIC50: −log10 of the molar value. Where a name gives a salt, the structure may show the parent alone.

Target: T1, recombinant full-length USP7 (Homo sapiens, UniProt Q93009)
T1 construct: A 25 μl reaction volume containing recombinant full-length USP7 (62 pM)
Experiment: USP7-mediated ubiquitin-rhodamine cleavage assay
Assay type: biochemical
Settings: recombinant full-length USP7 62 pM; ubiquitin-rhodamine 100 nM; 30-minute incubation with compound, 1 hour reaction at room temperature; read-out: Potency: USP7 IC50
Method: In the case of the USP7 deubiquitylating enzyme, the IC50 of an USP7 inhibiting compound is the concentration of the compound that inhibits 50% of the activity observed in a USP7-mediated ubiquitin-rhodamine cleavage assay.
For the USP7 inhibitors disclosed herein, their potency was measured using the following test method.
A 25 μl reaction volume containing recombinant full-length USP7 (62 pM) in 20 mM HEPES pH 7.3, 150 mM NaCl, 1 mM TCEP, and 125 μg/ml BSA was assembled in wells of 384 well plates. Test compounds were dispensed with a Hewlett Packard D300 digital dispenser (1% final DMSO). Following a 30-minute incubation at room temperature, ubiquitin-rhodamine was added with the D300 to a final concentration of 100 nM and the reaction was allowed to proceed for 1 hour at room temperature protected from light. The reaction was stopped by the addition of 5 μl 1M acetic acid. Rhodamine fluorescence was measured using an Envision plate reader (Perkin Elmer) and IC50 values were determined by non-linear regression using a 4-parameter fit in a Dotmatics (Bishops Stortford, Hertfordshire, England) software package.

T1 sequence (Q93009 whole entry): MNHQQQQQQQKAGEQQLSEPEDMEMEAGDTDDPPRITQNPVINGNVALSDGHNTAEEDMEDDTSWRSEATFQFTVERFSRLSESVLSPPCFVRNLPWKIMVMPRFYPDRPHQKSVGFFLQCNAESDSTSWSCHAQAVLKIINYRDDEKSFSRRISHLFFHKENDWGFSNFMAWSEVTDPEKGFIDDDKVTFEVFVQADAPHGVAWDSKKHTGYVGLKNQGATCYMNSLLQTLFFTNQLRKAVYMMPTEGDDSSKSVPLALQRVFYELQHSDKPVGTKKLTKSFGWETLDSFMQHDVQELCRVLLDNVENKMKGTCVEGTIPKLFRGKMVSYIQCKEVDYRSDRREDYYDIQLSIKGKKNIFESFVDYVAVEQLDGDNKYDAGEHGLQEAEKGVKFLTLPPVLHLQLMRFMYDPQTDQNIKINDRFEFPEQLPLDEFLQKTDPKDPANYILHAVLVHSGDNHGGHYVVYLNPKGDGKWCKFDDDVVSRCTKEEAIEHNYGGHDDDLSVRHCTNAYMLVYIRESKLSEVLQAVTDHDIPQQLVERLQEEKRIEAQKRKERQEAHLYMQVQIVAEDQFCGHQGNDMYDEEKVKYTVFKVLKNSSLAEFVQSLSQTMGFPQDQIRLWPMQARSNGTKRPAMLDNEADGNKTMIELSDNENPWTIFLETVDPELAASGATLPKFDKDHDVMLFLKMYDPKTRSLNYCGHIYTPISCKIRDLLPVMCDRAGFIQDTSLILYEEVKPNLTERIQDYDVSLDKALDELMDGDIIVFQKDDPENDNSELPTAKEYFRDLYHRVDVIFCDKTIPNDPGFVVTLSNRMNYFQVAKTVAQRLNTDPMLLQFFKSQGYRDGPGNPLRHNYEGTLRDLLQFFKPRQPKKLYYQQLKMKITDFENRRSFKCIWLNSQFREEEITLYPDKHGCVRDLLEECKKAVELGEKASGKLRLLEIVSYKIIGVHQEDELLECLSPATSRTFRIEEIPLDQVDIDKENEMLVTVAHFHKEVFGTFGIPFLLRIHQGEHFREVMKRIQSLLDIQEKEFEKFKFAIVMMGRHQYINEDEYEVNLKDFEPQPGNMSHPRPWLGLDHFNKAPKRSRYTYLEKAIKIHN

| pIC50 | SMILES |
| --- | --- |
| 5.00 to 6.00 | Cc1cc(Cl)cc(-c2ccnc3cc(CN4C(=O)CCC4=O)sc23)c1OC1CNCCOC1 (centres unmarked) [Example 271, 1-((7-(2-((1,4-Oxazepan-6-yl)oxy)-5-chloro-3-methylphenyl)thieno[3,2-b]pyridin-2-yl)methyl)pyrrolidine-2,5-dione] |
| 5.00 to 6.00 | Cc1cc(Cl)cc(-c2ccnc3cc(CN4C(=O)CCC4=O)sc23)c1O[C@@H]1CNC(C(=O)N(C)C)C1 (stereo partly drawn) [Example 64, (4S)-4-(4-Chloro-2-(2-((2,5-dioxopyrrolidin-1-yl)methyl)thieno[3,2-b]pyridin-7-yl)-6-methylphenoxy)-N,N-dimethylpyrrolidine-2-carboxamide] |
| > 6.00 | Cc1cc(Cl)cc(-c2ccnc3cc(CN4C(=O)C5CC5C4=O)sc23)c1O[C@@H]1CNC[C@@H]1F (stereo partly drawn) [Example 300, 3-[[7-[5-chloro-2-[(3R,4S)-4-fluoropyrrolidin-3-yl]oxy-3-methyl-phenyl]thieno[3,2-b]pyridin-2-yl]methyl]-3-azabicyclo[3.1.0]hexane-2,4-dione] |
| 5.00 to 6.00 | Cc1cc(Cl)cc(-c2ccnc3cc(CO)sc23)c1O[C@@H]1CC[C@@H](N)C1 [Example 90, (7-(2-(((1R,3R)-3-Aminocyclopentyl)oxy)-5-chloro-3-methylphenyl)thieno[3,2-b]pyridin-2-yl)methanol] |
| 4.52 to 5.00 | Cc1cc(Cl)cc(-c2ccnc3cc(CO)sc23)c1O[C@@H]1CN[C@H](CO)C1 [Example 77, (7-(5-Chloro-2-(((3S,5S)-5-(hydroxymethyl)pyrrolidin-3-yl)oxy)-3-methylphenyl)thieno[3,2-b]pyridin-2-yl)methanol] |
| 4.52 to 5.00 | CCC(O)c1cc2nccc(-c3cccc(C)c3OC3CCNCC3)c2s1 (centres unmarked) [Example 172, 1-(7-(3-Methyl-2-(piperidin-4-yloxy)phenyl)thieno[3,2-b]pyridin-2-yl)propan-1-ol] |
| > 6.00 | CCC(O)c1cc2nccc(-c3cc(Cl)cc(C)c3OCC3(C#N)CNC3)c2s1 (centres unmarked) [Example 39, 3-((4-Chloro-2-(2-(1-hydroxypropyl)thieno[3,2-b]pyridin-7-yl)-6-methylphenoxy)methyl)azetidine-3-carbonitrile] |
| 5.00 to 6.00 | Cc1cc(Cl)cc(-c2ncnc3cc(CN4C(=O)CSC4=O)sc23)c1OC1CCNCC1 [Example 226, 3-((4-(5-Chloro-3-methyl-2-(piperidin-4-yloxy)phenyl)thieno[3,2-d]pyrimidin-6-yl)methyl)thiazolidine-2,4-dione] |
| 5.00 to 6.00 | CCC(O)c1cc2nccc(-c3cc(Cl)cc(C)c3OCC3(F)CNC3)c2s1 (centres unmarked) [Example 35, 1-(7-(5-Chloro-2-((3-fluoroazetidin-3-yl)methoxy)-3-methylphenyl)thieno[3,2-b]pyridin-2-yl)propan-1-ol] |
| 5.00 to 6.00 | Cc1cc(Cl)cc(-c2ccnc3cc([C@H](C)N4C(=O)CCC4=O)sc23)c1OC1CCNCC1 [Example 1, (S)-1-(1-(7-(5-Chloro-3-methyl-2-(piperidin-4-yloxy)phenyl)thieno[3,2-b]pyridin-2-yl)ethyl)pyrrolidine-2,5-dione] |
| > 6.00 | Cc1cc(C(F)(F)F)cc(-c2ccnc3cc(CN4C(=O)CCC4=O)sc23)c1OC1CCNCC1 [Example 253, 1-((7-(3-Methyl-2-(piperidin-4-yloxy)-5-(trifluoromethyl)phenyl)thieno[3,2-b]pyridin-2-yl)methyl)pyrrolidine-2,5-dione] |
| > 6.00 | Cc1cc(Cl)cc(-c2ccnc3cc(CN4C(=O)C5CCC5C4=O)sc23)c1O[C@H]1CCCNC1 (stereo partly drawn) [Example 297, 3-[[7-[5-chloro-3-methyl-2-[[(3S)-3-piperidyl]oxy]phenyl]thieno[3,2-b]pyridin-2-yl]methyl]-3-azabicyclo[3.2.0]heptane-2,4-dione; 2,2,2-trifluoroacetic acid] |
| > 6.00 | Cc1cc(Cl)cc(-c2ccnc3cc(CN4C(=O)CCN(C)C4=O)sc23)c1O[C@@H]1CNC[C@@H]1F [Example 150, 3-((7-(5-Chloro-2-(((3R,4S)-4-fluoropyrrolidin-3-yl)oxy)-3-methylphenyl)thieno[3,2-b]pyridin-2-yl)methyl)-1-methyldihydropyrimidine-2,4(1H,3H)-dione] |

Same assay, conditions: recombinant full-length USP7 62 pM; ubiquitin-rhodamine 100 nM; 30-minute pre-incubation, 1 hour reaction at room temperature; read-out: Potency (USP7 IC50)

| pIC50 | SMILES |
| --- | --- |
| > 6.00 | Cc1cc(Cl)cc(-c2ccnc3cc(Cn4c(=O)ccn(CC(F)(F)F)c4=O)sc23)c1OCCN1CCOCC1 [Example 662, 3-[[7-[5-chloro-3-methyl-2-(2-morpholinoethoxy)phenyl]thieno[3,2-b]pyridin-2-yl]methyl]-1-(2,2,2-trifluoroethyl)pyrimidine-2,4-dione; 2,2,2-trifluoroacetic acid] |
| > 6.00 | CCN1C[C@H](F)[C@H](Oc2c(C)cc(Cl)cc2-c2ccnc3cc(Cn4c(=O)ccn(C)c4=O)sc23)C1 [Example 459, 3-[[7-[5-chloro-2-[(3R,4S)-1-ethyl-4-fluoro-pyrrolidin-3-yl]oxy-3-methyl-phenyl]thieno[3,2-b]pyridin-2-yl]methyl]-1-methyl-pyrimidine-2,4-dione; 2,2,2-trifluoroacetic acid] |
| > 6.00 | Cc1cc(Cl)cc(-c2ccnc3cc(CN4C(=O)CN(CC(F)(F)F)C4=O)sc23)c1OC1CCNCC1 [Example 649, 3-[[7-[5-chloro-3-methyl-2-(4-piperidyloxy)phenyl]thieno[3,2-b]pyridin-2-yl]methyl]-1-(2,2,2-trifluoroethyl)imidazolidine-2,4-dione; 2,2,2-trifluoroacetic acid] |
| > 6.00 | Cc1cc(Cl)cc(-c2ncnc3cc(Cn4c(=O)ccn(CC(F)(F)F)c4=O)sc23)c1O[C@@H]1CCNC[C@@H]1C [Example 584, 3-[[4-[5-chloro-3-methyl-2-[[(3S,4R)-3-methyl-4-piperidyl]oxy]phenyl]thieno[3,2-d]pyrimidin-6-yl]methyl]-1-(2,2,2-trifluoroethyl)pyrimidine-2,4-dione] |
| > 6.00 | Cc1cc(Cl)cc(-c2ccnc3cc(Cn4c(=O)ccn(C)c4=O)sc23)c1O[C@@H]1CNC[C@H](F)C1 [Example 497, 3-[[7-[5-chloro-2-[[(3S,5R)-5-fluoro-3-piperidyl]oxy]-3-methyl-phenyl]thieno[3,2-b]pyridin-2-yl]methyl]-1-methyl-pyrimidine-2,4-dione] |
| > 6.00 | Cc1cc(Cl)cc(-c2ccnc3cc(Cn4c(=O)ccn(CC(F)(F)F)c4=O)sc23)c1O[C@H]1CCNC[C@@H]1F [Example 559, 3-[[7-[5-chloro-2-[[(3S,4S)-3-fluoro-4-piperidyl]oxy]-3-methyl-phenyl]thieno[3,2-b]pyridin-2-yl]methyl]-1-(2,2,2-trifluoroethyl)pyrimidine-2,4-dione] |
| > 6.00 | CO[C@H]1CC(=O)N(Cc2cc3nccc(-c4cc(Cl)cc(C)c4O[C@H]4CCCNC4)c3s2)C1=O [Example 421, (3S)-1-[[7-[5-chloro-3-methyl-2-[[(3S)-3-piperidyl]oxy]phenyl]thieno[3,2-b]pyridin-2-yl]methyl]-3-methoxy-pyrrolidine-2,5-dione; 2,2,2-trifluoroacetic acid] |
| > 6.00 | Cc1cc(Cl)cc(-c2ccnc3cc(Cn4c(=O)cc(C(F)(F)F)n(C)c4=O)sc23)c1O[C@H]1CCCNC1 [Example 515, 3-[[7-[5-chloro-3-methyl-2-[[(3S)-3-piperidyl]oxy]phenyl]thieno[3,2-b]pyridin-2-yl]methyl]-1-methyl-6-(trifluoromethyl)pyrimidine-2,4-dione; 2,2,2-trifluoroacetic acid] |
| > 6.00 | O=C1CCC(=O)N1Cc1cc2nccc(-c3cc(Cl)cc(C(F)F)c3O[C@H]3CCCNC3)c2s1 [Example 432, 1-[[7-[5-chloro-3-(difluoromethyl)-2-[[(3S)-3-piperidyl]oxy]phenyl]thieno[3,2-b]pyridin-2-yl]methyl]pyrrolidine-2,5-dione dihydrochloride] |
| > 6.00 | Cc1cc(Cl)cc(-c2ccnc3cc(Cn4c(=O)ccn(CC(F)(F)F)c4=O)sc23)c1O[C@@H]1CNC[C@@H]1C(F)F [Example 620, 3-[[7-[5-chloro-2-[(3S,4S)-4-(difluoromethyl)pyrrolidin-3-yl]oxy-3-methyl-phenyl]thieno[3,2-b]pyridin-2-yl]methyl]-1-(2,2,2-trifluoroethyl)pyrimidine-2,4-dione] |
| > 6.00 | Cc1cc(Cl)cc(-c2ccnc3cc(Cn4c(=O)c(C)cn(C)c4=O)sc23)c1O[C@@H]1CNC[C@@H]1F [Example 480, 3-[[7-[5-chloro-2-[(3R,4S)-4-fluoropyrrolidin-3-yl]oxy-3-methyl-phenyl]thieno[3,2-b]pyridin-2-yl]methyl]-1,5-dimethyl-pyrimidine-2,4-dione] |
| 5.00 to 6.00 | Cc1cc(Cl)cc(-c2ccnc3cc(Cn4c(=O)ccn(C)c4=O)sc23)c1O[C@H]1CN[C@@H](C(=O)O)C1 [Example 601, (2R,4R)-4-[4-chloro-2-methyl-6-[2-[(3-methyl-2,6-dioxo-pyrimidin-1-yl)methyl]thieno[3,2-b]pyridin-7-yl]phenoxy]pyrrolidine-2-carboxylic acid] |
| > 6.00 | Cc1cc(Cl)cc(-c2ccnc3cc(Cn4c(=O)ccn(CC(F)(F)F)c4=O)sc23)c1OC1CCNCC1(C)C (centres unmarked) [Example 616, 3-[[7-[5-chloro-2-[(3,3-dimethyl-4-piperidyl)oxy]-3-methyl-phenyl]thieno[3,2-b]pyridin-2-yl]methyl]-1-(2,2,2-trifluoroethyl)pyrimidine-2,4-dione; 2,2,2-trifluoroacetic acid] |
